Source: patent US11077141B2, “Anti-tumor T cell immunity induced by high dose radiation” (The Board of Trustees of the Leland Stanford Junior …, priority 2012, dated 2021)

What was measured:
CT26 luc+ tumor cells = assay: Bioluminescence imaging of luciferase transduced CT26 tumors in RAG2-/- mice given LTI and CY with or without T cells; parameters: species or system BALB/c RAG2-/- mice; conditions: mouse, in vivo
Source text: Cell lines. The CT26 cell line (an N-nitro-N-methylurethane-induced BALB/c murine colon carcinoma) was purchased from ATCC (Manassas, Va.). The 4T1 cell line (spontaneously arising) was also obtained from ATCC. The 4T1-LUC/GFP and CT26-LUC/GFP cell lines were lentiviraly transduced. The lentiviral vector pHR-IG was made by Dr. Yoshitaka Akagi. The GFP-firefly luciferase fusion (GLF) gene was subcloned from pJW.GFP-yLuc (kindly provided by Dr. M. H. Bachmann) into pHR2 to generate pHR2-GLF. Lentiviral particles expressing GLF were prepared as described before. […]. WT 4T1 and CT26 cells were seeded in a 6 well plate at 0.25×10^6 cells/well and incubated overnight in a 37° C. incubator. Titrated virus was then used to transduce the cell lines in the presence of protamine sulfate (10 μg/ml) to enhance transduction efficiency. Stable lentiviral transductants were then sorted 4 times for GFP fluorescence (100% purity) using a FACS DIVA cell sorter. Sorted cells were expanded and screened for bioluminescence using an Xenogen IVIS spectrum (Caliper Life Sciences; Hopkinton, Mass.), as well as GFP. Cell lines were maintained in RPMI-1640 complete medium supplemented with 10% fetal calf serum, L-glutamine, 2 mercaptoethanol, streptomycin and penicillin.
In vivo BLI imaging. In vivo BLI was performed according to the method of Edinger et al. Briefly, mice were injected intraperitoneally with luciferin ([…]). Ten minutes later, mice were imaged using an IVIS100 charge-coupled device imaging system (Xenogen) for 5 minutes. Imaging data were analyzed and quantified with Living Image software (Xenogen).

CT26 tumors = assay: Survival of CT26 tumor-bearing RAG-2-/- mice given 30 Gy LTI with or without CY and T cells; type: in vivo, BALB/c RAG2-/- mice; conditions: 30 Gy LTI at day 21
Procedure: Animals. Wild-type male BALB/c (H-2^d) mice, and male BALB/c RAG2^−/− mice, were purchased from Jackson Laboratories (Bar Harbor, Me.). Mice were 5-8 weeks old.
Irradiation. Total body irradiation was performed with a Philips X-ray unit (200 kV, 10 mA; Philips Electronic Instruments Inc., Rahway, N.J.) at a rate of 84 cGy/min with a 0.5 mm Cu filter. For local tumor irradiation, unanesthetized mice were placed in lead jigs through which established tumors in the hind quarter were protruded for irradiation to an area of approximately 2 cm diameter. Irradiation was performed with a Phillips X-ray unit operated at 200 kV with the dose rate of 1.21 Gy/min (20 mÅ with added filtration of 0.5 mm copper, the distance from X-ray source to the target of 31 cm, and a half value layer of 1.3 mm copper).
Cell preparation, splenectomy, and collection of T cells for autologous transplantation. Single cell suspensions of bone marrow and spleen were prepared according to previously described procedures. […]
FACS Aria (Becton Dickinson, Mountain View, Calif.) was used for analysis with FlowJo software (TreeStar, Ashland, Oreg.). After sorting cells were checked by FACS reanalysis and determined to be >99% pure. […]

4T1 luc+ breast tumor = assay: 4T1 breast tumor metastasis model: LTI (3 daily doses of 20 Gy), CY and cryopreserved autologous T cells; type: in vivo, BALB/c mice; conditions: 21 day 4T1 tumors; 3 daily doses of 20 Gy LTI, then single dose of CY
Procedure: Irradiation. […] For local tumor irradiation, unanesthetized mice were placed in lead jigs through which established tumors in the hind quarter were protruded for irradiation to an area of approximately 2 cm diameter. Irradiation was performed with a Phillips X-ray unit operated at 200 kV with the dose rate of 1.21 Gy/min (20 mÅ with added filtration of 0.5 mm copper, the distance from X-ray source to the target of 31 cm, and a half value layer of 1.3 mm copper).
Enriched cells were stained with anti-TCR-allophycocyanin (APC) and anti-CD4 or anti-CD8-fluorescein isothiocyanate (FITC) mAbs to check for purity, and preparations were uniformly at least 95% pure.
FACS Aria (Becton Dickinson, Mountain View, Calif.) was used for analysis with FlowJo software (TreeStar, Ashland, Oreg.). After sorting cells were checked by FACS reanalysis and determined to be >99% pure. Collected T cells were cryopreserved with 10% DMSO and frozen in liquid nitrogen.
In vivo BLI imaging. In vivo BLI was performed according to the method of Edinger et al. Briefly, mice were injected intraperitoneally with luciferin (10 μg/g body weight). Ten minutes later, mice were imaged using an IVIS100 charge-coupled device imaging system (Xenogen) for 5 minutes. Imaging data were analyzed and quantified with Living Image software (Xenogen).

## O=P1(N(CCCl)CCCl)NCCCO1 (stereo not shown) [CY, cyclophosphamide]
CT26 luc+ tumor cells
  day by which all of the mice died: ≤ 107
  death or survival of mice by day 35: 2 of 5
  tumor signal / tumor growth by BLI: continued tumor growth
CT26 tumors
  survival (none of the mice survived beyond): ≤ 80 days
4T1 luc+ breast tumor
  mice died by day 84: 6 of 8
  mice relapsed at day 98: 1
  tumor growth: progression of tumor growth was slowed
